Assay results published in patent publication EP3818828A1 (priority 2019, dated 2021).

Assays:
Phytophthora infestans = type: cell-based; settings: Phytophthora infestas; 1 mg/mL
F. graminearum = test: microbe, parasite or virus in culture; type: cell-based; settings: for Average Diameter of the Colony: F. graminearum, 1 mg/mL; for inhibition at 1000 µg/mL: Fusarium graminearum, read-out: Inhibition Rate
Pyricularia grisea = test: microbe, parasite or virus in culture; type: cell-based; settings: for Average Diameter of the Colony: 1 mg/mL; for inhibition at 1000 µg/mL: read-out: Inhibition Rate
Pythium ultimum = test: Supplementary ex vivo determination of antifungal activity; type: cell-based; settings: compared with carbendazim
Description: The inhibition of samples for testing on the mycelial growth of plant pathogenic fungi for testing is determined with a growth rate method. 3-(3',4'-methylenedioxy phenyl)-N-n-propyl acrylamide, 3-(3',4'-methylenedioxy phenyl)-piperidine acrylate and five control agents are dissolved with dimethyl sulfoxide (DMSO), then formulated at 5-7 concentrations of different gradients for test following the trial test results, with the same concentration of DMSO as the control solvent, each treatment in triplicate. Fungal cakes with a diameter of 4 mm are taken from the edge of the colony, inoculated into the center of a PDA plate containing different agents of different concentrations and the DMSO control, with one piece of fungal cake inoculated in each plate (with a diameter of […]), and incubated in a constant temperature incubator at a temperature of 22±1.5°C. 7 days later (10-20 days may be needed for some pathogenic fungi), the diameter of the colony is measured with a cross over method according to the mycelial growth profile of the control pathogenic fungi, then the inhibition rate of mycelial growth is calculated.

E. cichoracearum = test: Field efficiency test, cucumber powdery mildew; type: in vivo; settings: 0.50 mg/mL (active ingredients)
Description: The formulation of emulsifiable concentrate is the same as that in Embodiment 3.
10% of 3-(3',4'-methylenedioxy phenyl)-N-n-propyl acrylamide EC and 14% of 3-(3',4'-methylenedioxy phenyl)-piperidine acrylate EC were diluted at a concentration of 0.50 mg/mL (2000 fold liquid of active ingredients); the control agent, 10% of dimethomorph EW, was also diluted at a concentration of 0.50 mg/mL (2000 fold liquid of active ingredients); the control agent, 80% of mancozeb WP, was diluted at a concentration into a 500 fold liquid according to the usage amount of the formulation; the control agents, 12.5% of myclobutanil EC, 25% of propiconazole EC, 430 g/L of tebuconazole SC, 10% of hexaconazole EC and 37% of difenoconazole EC were all diluted at a concentration into 1500 fold liquids according to the usage amount of the formulation; additionally clear water was used as the control. The first application was started on June 15th, and E. cichoracearum was inoculated on June 17th (the sick leaves were harvested from the solar greenhouse near the military airfield at Xiaguanying town, Yuzhong County, moisturized in the greenhouse for 2 days, then shreded, and filtered over a gauze, the filtrate was sprayed onto both sides of the cucumber leaves with the cone nozzle of an electric sprayer for inoculation). […]

[1] = tested on: zucchini, cucumber, flax, and tomato; test: Crop safety in the field efficiency tests; type: in vivo; settings: at the test doses
Source text: The variety of zucchini was Zaoqing F1 (manufactured by Wuwei Dadi Seed Industry Co., Ltd.), which was sown on July 29th, 2016. The first application was started on August 26th, at the early onset of powdery mildew (the average disease index is 10.07). The instrument for application was Agrolex HD 400 Model hand operating knapsack sprayer, which employed a cone nozzle. Each agent was formulated into the desired concentrations according to the usage amount of the control clear water. Both sides of the leaves were sprayed evenly so that the leaves were wetted by the liquor without loss. 10% of 3-(3',4'-methylenedioxy phenyl)-N-n-propyl acrylamide EC and 14% of 3-(3',4'-methylenedioxy phenyl)-piperidine acrylate EC were both diluted at a concentration of 0.50 mg/mL (active ingredients); the control agent, 430 g/L of tebuconazole SC (manufactured by Yantai Keda Chemical Co., Ltd.) was also diluted at a concentration of 0.50 mg/mL (active ingredients); additionally clear water was used as the control. Thereafter, applications were conducted every 7 days consecutively for 4 times. 10 days after the last application, the number of sick leaves at each grade of powdery mildew was investigated for the whole plant following the grading standard of 9 grades, to calculate the disease index and the control effect.
The variety of flax is Zhangya No. 2. […]

Structure (SMILES) | Average Diameter of the Colony (Phytophthora infestans) [cm] | Average Diameter of the Colony (F. graminearum) [cm] | inhibition at 1000 µg/mL (F. graminearum) [%] | Average Diameter of the Colony (Pyricularia grisea) [cm] | inhibition at 1000 µg/mL (Pyricularia grisea) [%] | antifungal activity against Pythium ultimum (Pythium ultimum) | Control Effect (E. cichoracearum) [%] | safety for zucchini, cucumber, flax, and tomato [1]
CCCNC(=O)/C=C/c1ccc2c(c1)OCO2 [3-(3',4'-methylenedioxyphenyl)-N-n-propyl acrylamide] | 2.05 | 3.49 | 59.4 | 5.30 | 41.1 | superior to that of the control agent, carbendazim | 88.38 | safe for zucchini, cucumber, flax, and tomato
O=C(/C=C/c1ccc2c(c1)OCO2)N1CCCCC1 [3-(3',4'-methylenedioxyphenyl)-piperidine acrylate] | 0.81 | 0.00 | 100 | 1.60 | 82.2 | superior to that of the control agent, carbendazim | 69.84 | safe for zucchini, cucumber, flax, and tomato
